Experimental data from article PMC3463587, “A Series of Beta-Carboline Derivatives Inhibit the Kinase Activity of PLKs” (PLoS ONE, 2012).
pIC50: −log10 of the molar value.

Biological target: T1, Aurora-A (Homo sapiens, UniProt O14965)
T1 sequence (O14965 1-403): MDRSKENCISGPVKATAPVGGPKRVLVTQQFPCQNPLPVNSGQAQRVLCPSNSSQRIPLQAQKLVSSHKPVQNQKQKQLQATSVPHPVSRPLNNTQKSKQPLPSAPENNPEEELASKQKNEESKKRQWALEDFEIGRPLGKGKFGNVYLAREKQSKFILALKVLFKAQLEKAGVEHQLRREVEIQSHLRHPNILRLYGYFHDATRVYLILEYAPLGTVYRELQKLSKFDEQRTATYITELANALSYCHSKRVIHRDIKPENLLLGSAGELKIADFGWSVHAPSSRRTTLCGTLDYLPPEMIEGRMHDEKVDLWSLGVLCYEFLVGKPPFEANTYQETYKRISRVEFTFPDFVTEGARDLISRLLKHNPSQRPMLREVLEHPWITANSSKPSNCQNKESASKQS
Test: In vitro kinase assay Aurora A
Type: biochemical
Description: The inhibition of PLK1 kinase activity was assessed using the Cyclex PLK1 Assay/Inhibitor Screening Kit (MBL International Corporation, Japan). The kit includes anti-phospho-threonine polyclonal antibody (PPT-07) and peroxidase coupled anti-rabbit IgG antibody as a reporter in a 96-well ELSIA format. Compounds were used at the concentrations from 10^− ^3 to 10^2 µg/ml and the absorbance was determined at 450 nm. A similar protocol was used to determine the kinase inhibition for PLK2, PLK3, Aurora A and Aurora B. The kinase activity of CDK1/cyclinB and CDK2/cyclinE was analyzed in the presence of serially diluted inhibitors. For each reaction, 20 ng of recombinant kinase was used and […] casein from bovine milk (Sigma) was added as the kinase substrate. The kinase reaction buffer contains 8 mM MOPS pH7.0, 0.2 mM EDTA, 0.1 mg/ml histone H1, 10 mM and MgAcetace and [γ^− ^33P-ATP] (500 cpm/pmol). The reaction was initiated by adding the MgATP mix. After incubation for 40 minutes at room temperature, the reaction was stopped by the addition of 3% phosphoric acid solution. We spotted 10 µl of the reaction mixture onto a P30 filtermat and washed three times for 5 min with 75 mM phosphoric acid and once with methanol prior to drying and scintillation counting.

Cc1c2c(cc[n+]1Cc1ccccc1)c1ccc(OCc3ccccc3)cc1n2Cc1ccccc1 [DH287]
pIC50: 4.65
